Values quoted from earlier work in patent publication US6406894B1, “Process for preparing polyvalent and physiologically degradable carbohydrate-containing polymers by enzymatic glycosylation reactions and the use thereof for preparing carbohydrate building blocks” (Glycorex AB, priority 1992, dated 2002).

Molecular target: T1, E-selectin-IgG (Homo sapiens, UniProt P16581)
T1 construct: soluble fusion proteins formed between the extracytoplasmic domain of E- or P-selectin together with the constant region of a human immunoglobulin of subclass IgG1; made in house; host or cells: COS-7 cells, transient transfection with DEAE-dextran; the culture supernatant was used and captured on plates coated with anti-human IgG
T1 sequence (P16581 with tags, fused parts or gaps): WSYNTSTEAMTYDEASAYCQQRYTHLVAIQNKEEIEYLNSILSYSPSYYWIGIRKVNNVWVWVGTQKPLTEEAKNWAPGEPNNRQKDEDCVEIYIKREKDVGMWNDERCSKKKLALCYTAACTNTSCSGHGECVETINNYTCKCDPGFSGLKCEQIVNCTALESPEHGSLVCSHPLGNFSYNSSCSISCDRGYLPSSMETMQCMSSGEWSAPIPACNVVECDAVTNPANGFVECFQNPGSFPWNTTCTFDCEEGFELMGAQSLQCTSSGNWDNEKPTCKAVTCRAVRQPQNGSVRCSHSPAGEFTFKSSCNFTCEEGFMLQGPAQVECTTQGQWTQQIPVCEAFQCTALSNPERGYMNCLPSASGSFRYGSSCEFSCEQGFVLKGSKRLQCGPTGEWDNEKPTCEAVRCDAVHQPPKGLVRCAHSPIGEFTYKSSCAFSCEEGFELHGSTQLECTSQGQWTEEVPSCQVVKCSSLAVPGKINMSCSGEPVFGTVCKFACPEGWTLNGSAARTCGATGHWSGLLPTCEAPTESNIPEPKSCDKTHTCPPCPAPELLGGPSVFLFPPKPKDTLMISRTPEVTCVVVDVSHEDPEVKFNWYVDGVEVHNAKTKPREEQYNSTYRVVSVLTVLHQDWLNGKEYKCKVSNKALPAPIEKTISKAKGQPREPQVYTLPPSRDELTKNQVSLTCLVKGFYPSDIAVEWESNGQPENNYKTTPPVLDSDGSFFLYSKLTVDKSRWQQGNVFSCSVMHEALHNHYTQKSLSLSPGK
Details: comparative value, c.f. EPA 93 119 098.7; read-out: Comparative value: IC50 of HL60 cell adhesion to E-selectin-IgG

- IC50: 1000 µM
SMILES: CC(=O)NC1C(O)CC(OC2C(O)C(CO)OC(OC3C(CO)OC(OCCCCCCN)C(NC(C)=O)C3OC3OC(C)C(O)C(O)C3O)C2O)(C(=O)O)OC1C(O)C(O)CO (stereo not shown) [Sialyl-Le^x—O(CH2)6NH2]
